PMC6855259, “Acylation-coupled lipophilic induction of polarisation (Acyl-cLIP): a universal assay for lipid transferase and hydrolase enzymes” (Chemical Science, 2019)
Where a name gives a salt, the structure may show the parent alone. Read-outs that look alike come from different tables or passages of the source. Where a SMILES comes first, the peptide text is derived from it. Where no end group is shown, it is not given here.

What was measured:
HHAT [1] = biological target: T1, HHAT (Homo sapiens, UniProt Q5VTY9); assay: Pilot HTS Acyl-cLIP screen of FDA-approved drugs, purified HHAT, stopped-assay conditions; assay type: biochemical; settings: compounds screened at 25 μM
T1 construct: FLAG (C); His (C); made in house; host or cells: HEK293a cells stably overexpressing HHAT-FLAG-His

HHAT [2] = biological target: T1, HHAT; assay: HHAT Acyl-cLIP assay with HHAT-P100(sol): SHH-FAM palmitoylation, dose-response and kinetics; assay type: biochemical
Description: Recombinant Protein Production
HHAT-enriched solubilised membrane fractions (HHAT-P100(sol)) were prepared as previously described,[4] with the following modifications. HEK293a cells overexpressing HHAT-FLAG-His (HEK293a HHAT+) were cultured, harvested by trypsinisation, and washed with PBS as previously described.[9] Cells (5 × 106) in DMEM/FBS (35 mL) were inoculated on sterilised CultiSphere S microcarriers (100 mg) in a spinner flask (Corning), and incubated as previously described. After 24 h, DMEM/FBS (15 mL) was added and cells incubated with stirring (~30 rpm), with addition on DMEM/FBS (50 mL) after 24 h. DMEM/FBS (50 mL) was refreshed every subsequent 24 h. After 5 days, microcarriers were collected by centrifugation (1,000 g, 1 min), and washed with PBS (25 mL). Microcarriers were digested with trypsin (3 mL) with visual monitoring by microscopy (5-15 min, see Supplementary Figure S11D) to release HEK293a HHAT+ cells, which were washed with DMEM/FBS (25 mL) and PBS […]
(25 mL). […]
25 kPSI through a Cell Disruptor (Constant Systems). Lysates were cleared by centrifugation (20,000 g, 30 min, 4 °C), and the supernatant passed through a HisTrap™ Fast Flow column (GE Healthcare). Bound protein was eluted with elution buffer (50 mM TRIS, 150 mM NaCl, 300 mM imidazole, pH 8.8), and concentrated to 2 mL in a Protein Concentrator PES (Pierce, 10,000 MWCO). The sample was cleared by centrifugation (20,000 g, 5 min, 4 °C) and purified using a S75 16/600 gel filtration column (Generon), eluting with storage buffer (50 mM TRIS, 150 mM NaCl, pH 7.4). Fractions containing protein were pooled, concentrated (5 mg/mL APT1, 4 mg/mL APT2), flash frozen, and stored at −80 °C.
Fluorescence measurements were recorded on an EnVision Xcite 2104 (PerkinElmer).
FAM-labelled peptides were measured using a FITC FP D505fp mirror module, FITC FP 480 nm excitation filter (30 nm bandwidth), FITC FP P-pol 535 nm first emission filter (40 nm bandwidth), and FITC FP S-pol 535 nm second emission filter (40 nm bandwidth). Continuous reaction monitoring was conducted using measurement height = 9.52 mm, 8 flashes/well, PMT gain = 319, and G-factor = 1.09. For the HHAT pilot screen, stopped-assay measurements were performed using measurement height = 9.52 mm, 60 flashes/well, PMT gain = 319, and G-factor = 1.09. The NMT acyl-cLIP assay continuous reaction monitoring was conducted using measurement height = 6.6 mm, 1 flash/well, PMT gain = 163, and G- […]
TAMRA-labelled peptides were measured using a BODIPY TMR FP D555fp mirror module, BODIPY TMR FP 531 nm excitation filter (25 nm bandwidth), BODIPY TMR FP P-pol 579 nm first emission filter (25 nm bandwidth), and BODIPY TMR FP S-pol 579 nm second emission filter (25 nm bandwidth). Continuous reaction monitoring was conducted using measurement height = 6.5 mm, 200 flashes/well, PMT gain = 255, and G-factor = 1.6.
HHAT-P100(sol) (450 µg/mL) in solubilisation buffer (20 mM HEPES, 350 mM NaCl, 1% (w/v) DDM, 5% glycerol, pH 7.3) was diluted 1:10 in SHH-FAM (2 µM) in reaction buffer (100 mM MES, 20 mM NaCl, 1 mM DTT, 1 mM TCEP, 0.1% (w/v) BSA, pH 6.5). The HHAT/SHH-FAM solution (12 µL/well) was dispensed into a black 384-well plate (Corning, 3575). The reaction was initiated by addition of Pal-CoA (7.5 µM) in reaction buffer (8 µL/well), and fluorescence readings collected every 1 min for 1 h. Under stopped-assay conditions, the reaction was halted by addition of SHH (220 µM) in reaction buffer (2 µL).
Detergents (2 mM) or BSA (0.15 mM) were tested for generation of polarised fluorescence from Pal-SHH-FAM or SHH-FAM (0.1 µM) in 100 mM MES, 20 mM NaCl. Detergent and BSA titrations were performed using 2-fold serial dilutions.
Small molecule inhibitors in DMSO were dispensed using an Echo 550 liquid handler (Labcyte), with a DMSO backfill volume of 50 nL. Substrate competitors SHH, SHH(FL), or Pal-SHH were serially diluted in reaction buffer (1:3) prior to addition to the HHAT/SHH-FAM […]
solution. […]

[3] = test system: SHH acylation in HEK-293 SHH+ cells; assay: In-cell YnC15 tagging assay of SHH acylation; assay type: cell-based, human; settings: inhibitors 20 µM, YnC15, AzTB ligation
Description: In-Cell YnC15 Tagging Assay
HEK293a SHH+ cells (500,000 cells/well) were plated in a 6-well plate in DMEM/FBS (3 mL/well) and cultured for 24 h. Cells were treated with inhibitors in DMSO (20 µM), two RUSKI-201 (20 µM) blind-positive controls and two DMSO (7.5 µL) blind-negative controls.
After 1 h, YnC15 (3 µL, 20 mM in DMSO) was added and cells cultured for a further 6 h before washing with PBS. Cells were lysed in PBS with Triton X-100 (1%), SDS (0.1% (w/v)) and Complete EDTA-free protease inhibitor cocktail (Roche Diagnostics). Cells were removed from plates by scraping, and lysates centrifuged (13,000 g, 10 min, 4 °C). The protein concentration of the supernatant was estimated using the DC Protein Assay (Bio-Rad) and adjusted to 1 mg/mL with lysis buffer. AzTB (1 µL, 10 mM in DMSO), CuSO4 (2 µL, 50 mM in H2O), TCEP (2 µL, 50 mM in H2O) and TBTA (1 µL, 10 mM in DMSO) were combined, and this mixture (6 µL) added to the lysate (100 µL). Samples were shaken at RT for 1 h, then proteins precipitated by addition of methanol (200 µL), chloroform (50 µL) and water (100 µL) followed by centrifugation (13,000 g, 5 min, 4 °C). The upper aqueous layer was removed without disturbing the protein layer at the interphase, methanol (0.5 mL) was added, and the precipitated proteins isolated by centrifugation (13,000 g, 10 min, 4 °C). Protein pellets were […]
washed twice with methanol, briefly air-dried and re-dissolved in PBS containing SDS (0.2% (w/v)) and DTT (0.1 mM) using sonication to a final concentration of 1 mg/mL.
10 µg of protein were separated on a 15% SDS-polyacrylamide gel. Fluorescence was recorded using a Typhoon imager (GE Healthcare; excitation laser: 532 nm, emission filter:
Proteins were transferred to a nitrocellulose membrane by wet transfer (100 V, 1 h), and membranes blocked with BSA (5% (w/v)) in TBS-T (50 mM TRIS, 150 mM NaCl, 0.1% Tween-20, pH 7.5) for 1 h at RT, followed by overnight incubation at 4°C with rabbit α-SHH (Santa Cruz Biotechnology; sc-9024; 1:200) in TBS-T with BSA (0.5% (w/v)) or mouse α-Tubulin (Santa Cruz Biotechnology; sc-8035; 1:200) in TBS-T with BSA (0.5% (w/v)). Membranes were washed with TBS-T (4 × 5 min) and incubated at RT for 1 h with HRP-conjugated Goat-α-mouse IgG (Advansta; 1:10,000) in TBS-T with BSA (0.5% (w/v)) or Goat-α-rabbit IgG (Advansta; 1:10,000) in TBS-T with BSA (0.5% (w/v)). Membranes were washed with TBS-T (4 × 5 min) and developed with Luminata Crescendo Western HRP substrate (Millipore) on a Fujifilm LAS-3000 imager. YnC15-labelled SHH band intensities were quantified using ImageJ 1.50i (National Institute of Health, USA).
HEK293a SHH+ cells (5,000 cells/well) were plated in a 96-well plate in DMEM/FBS […]
(50 µL/well) and cultured for 24 h. […]

[4] = Detergent/BSA titration for polarised emission of Pal-SHH-FAM (fluorescence anisotropy); settings: BSA titration with Pal-SHH-FAM; read-out: polarisation EC50
[5] = HHAT, SHH-FAM substrate competition, read-out: IC50 as competitive inhibitor of SHH-FAM palmitoylation
[6] = HHAT-P100(sol) activity, SHH-FAM palmitoylation, 25 min reaction, four parameter fit, read-out: IC50 of HHAT inhibition

T1 sequence (Q5VTY9 whole entry): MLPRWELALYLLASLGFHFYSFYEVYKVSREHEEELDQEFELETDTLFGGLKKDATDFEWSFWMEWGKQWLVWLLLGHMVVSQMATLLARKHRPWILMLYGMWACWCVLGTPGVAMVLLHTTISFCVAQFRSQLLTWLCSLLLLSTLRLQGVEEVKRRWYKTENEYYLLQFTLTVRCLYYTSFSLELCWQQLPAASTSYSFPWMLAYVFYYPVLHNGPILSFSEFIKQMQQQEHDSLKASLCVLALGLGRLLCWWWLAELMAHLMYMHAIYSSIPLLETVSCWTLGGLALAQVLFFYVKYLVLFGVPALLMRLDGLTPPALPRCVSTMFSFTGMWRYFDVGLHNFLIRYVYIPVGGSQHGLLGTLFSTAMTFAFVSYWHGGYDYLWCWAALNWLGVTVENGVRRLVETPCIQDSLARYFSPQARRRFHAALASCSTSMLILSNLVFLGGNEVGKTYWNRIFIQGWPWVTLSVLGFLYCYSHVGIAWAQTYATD

Compound: Cc1cc(C2CCCCC2)n(O)c(=O)c1 [Ciclopirox]
- inhibition at 25 µM (HHAT [1]): > 80%

Compound: Oc1ccc(C2CNCCc3c2cc(O)c(O)c3Cl)cc1 (centres unmarked) [Fenoldopam Mesylate]
- inhibition at 25 µM (HHAT [1]): > 80%

Compound: CCCCCCCCCCCCCCCC(=O)SCCNC(=O)CCNC(=O)[C@H](O)C(C)(C)COP(=O)(O)OP(=O)(O)OC[C@H]1O[C@@H](n2cnc3c(N)ncnc32)[C@H](O)[C@@H]1OP(=O)(O)O [Pal-CoA, palmitoyl-CoA]
- Vmax (HHAT [2]; Pal-CoA titration, SHH-FAM palmitoylation): 0.081 pmol min^–1
- Km (HHAT [2]; Pal-CoA titration, SHH-FAM palmitoylation, initial velocity conditions, read-out: apparent KM): 170 nM
- Vmax (HHAT [2]; Pal-CoA titration, initial velocity conditions): 0.081 pmol/min

Compound: CCCCCCCCCCCCCCCC(=O)N[C@@H](CS)C(=O)NCC(=O)N1CCC[C@H]1C(=O)NCC(=O)N[C@@H](CCCNC(=N)N)C(=O)NCC(=O)N[C@@H](Cc1ccccc1)C(=O)NCC(=O)N[C@@H](CCCCN)C(=O)N[C@@H](CCCNC(=N)N)C(=O)N[C@@H](CCCCN)C(N)=O [Pal-SHH] (HELM PEPTIDE1{[CCCCCCCCCCCCCCCC(=O)[*:2]].C.G.P.G.R.G.F.G.K.R.K.[am]}$$$$V2.0)
- IC50 (HHAT [2]; [5]): 100 nM

Compound: CCC(C)CNCC(=O)N1CCc2sccc2C1COc1cccc(C)c1 (centres unmarked) [RUSKI-43]
- IC50 (HHAT [2]; [6]): 17000 nM

Compound: CCC(C)CNCC(=O)N1CCc2sccc2C1c1cccc(C)n1 (centres unmarked) [RUSKI-201]
- IC50 (HHAT [2]; [6]): 2000 nM
- inhibition at 25 µM (HHAT [1]): > 80%
- inhibition of SHH acylation (YnC15 tagging) by in-gel fluorescence ([3]; IGF): showed inhibition of SHH acylation
- inhibition of SHH acylation assessed by increased molecular weight in anti-SHH blotting ([3]; α-SHH western blot): displayed inhibition

Compound: O=C1Cc2cc(CCN3CCN(c4nsc5ccccc45)CC3)c(Cl)cc2N1 [Ziprasidone·HCl]
- inhibition at 25 µM (HHAT [1]): > 80%

Compound: CGPGRGFGKRK-NH2 [SHH]
- IC50 (HHAT [2]; [5]): 370 nM

Compound: RUSKI-41
- IC50 (HHAT [2]; [6]): 5700 nM

Compound: RUSKI-101
- IC50 (HHAT [2]; [6]): 2100 nM

Compound: SHH(FL): N-terminal signalling domain of the mature full-length SHH protein (residues 24–193), expressed in E. coli without lipid modification
- IC50 (HHAT [2]; [5]): 440 nM

Compound: bovine serum albumin [BSA]
- EC50 [4]: 490 nM
